Reference: US12304932B2, “PACAP stabilized peptide” (SENJU PHARMACEUTICAL CO., LTD., priority 2017, dated 2025)
Square brackets hold non-standard residues; d marks the D form. Peptide text beside a SMILES is read from it. * marks the point of attachment. Ala(1H-tetrazol-5-yl) = N[C@@H](Cc1nnn[nH]1)C(=O)O; Ms = CS(=O)(=O)*

Assay: Peptide stability tests 2 and 3: Tris buffer pH 7.0, stored at 60° C., HPLC conditions 2
Type: physicochemical
Conditions: 100 μM peptide, Tris buffer pH 7.0, 60° C.
In short: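 Peptides at 100 μM in Tris buffer pH 7.0, held 1 or 2 weeks at 60° C. An unstored sample served as standard. Water-corrected survival rate by HPLC on C18 at 40° C., 0.1% formic acid water/acetonitrile gradient, 220 nm detection.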

SMILES | survival rate after correction for water, 60° C., 1-week storage | survival rate after correction for water, 60° C., 2-week storage (2 weeks) | survival rate after correction for water, 60° C., 2-week storage (Table 7-2) (2 weeks)
CC[C@H](C)[C@H](NC(=O)[C@H](C)NC(=O)[C@H](Cc1nnn[nH]1)NC(=O)[C@H](CO)NC(=O)[C@H](Cc1c[nH]cn1)NC(C)=O)C(=O)N[C@@H](Cc1ccccc1)C(=O)N[C@H](C(=O)N[C@@H](Cc1nnn[nH]1)C(=O)N[C@@H](CO)C(=O)N[C@@H](Cc1ccc(O)cc1)C(=O)N[C@@H](CO)C(=O)N[C@@H](CCCNC(=N)N)C(=O)N[C@@H](Cc1ccc(O)cc1)C(=O)N[C@@H](CCCNC(=N)N)C(=O)N[C@@H](CCCCN)C(=O)N[C@@H](CCC(N)=O)C(=O)N[C@@H](CC(C)C)C(=O)N[C@@H](C)C(=O)N[C@H](C(=O)N[C@@H](CCCCN)C(=O)N[C@@H](CCCCN)C(=O)N[C@@H](Cc1ccc(O)cc1)C(=O)N[C@@H](CC(C)C)C(=O)N[C@@H](C)C(=O)N[C@@H](C)C(=O)N[C@H](C(=O)N[C@@H](CC(C)C)C(N)=O)C(C)C)C(C)C)[C@@H](C)O [Peptide 23] (Ac-HS[Ala(1H-tetrazol-5-yl)]AIFT[Ala(1H-tetrazol-5-yl)]SYSRYRKQLAVKKYLAAVL-NH2) | 96.5% | 93.1% | 
CC[C@H](C)[C@H](NC(=O)CNC(=O)[C@H](Cc1nnn[nH]1)NC(=O)[C@H](C)NC(=O)[C@H](Cc1c[nH]cn1)NC(C)=O)C(=O)N[C@@H](Cc1ccccc1)C(=O)N[C@H](C(=O)N[C@@H](Cc1nnn[nH]1)C(=O)N[C@@H](C)C(=O)N[C@@H](Cc1ccc(O)cc1)C(=O)N[C@@H](CO)C(=O)N[C@@H](CCCNC(=N)N)C(=O)N[C@@H](Cc1ccc(O)cc1)C(=O)N[C@@H](CCCNC(=N)N)C(=O)N[C@@H](CCCCN)C(=O)N[C@@H](CCC(N)=O)C(=O)N[C@@H](CC(C)C)C(=O)N[C@@H](C)C(=O)N[C@H](C(=O)N[C@@H](CCCCN)C(=O)N[C@@H](CCCCN)C(=O)N[C@@H](Cc1ccc(O)cc1)C(=O)N[C@@H](CC(C)C)C(=O)N[C@@H](C)C(=O)N[C@@H](C)C(=O)N[C@H](C(=O)N[C@@H](CC(C)C)C(N)=O)C(C)C)C(C)C)[C@@H](C)O [Peptide 24] (Ac-HA[Ala(1H-tetrazol-5-yl)]GIFT[Ala(1H-tetrazol-5-yl)]AYSRYRKQLAVKKYLAAVL-NH2) | 98.1% | 94.3% | 
CC[C@H](C)[C@H](NC(=O)CNC(=O)[C@H](Cc1nnn[nH]1)NC(=O)[C@H](C)NC(=O)[C@H](Cc1c[nH]cn1)NC(C)=O)C(=O)N[C@@H](Cc1ccccc1)C(=O)N[C@H](C(=O)N[C@@H](Cc1nnn[nH]1)C(=O)N[C@@H](CO)C(=O)N[C@@H](Cc1ccc(O)cc1)C(=O)N[C@@H](CO)C(=O)N[C@@H](CCCNC(=N)N)C(=O)N[C@@H](Cc1ccc(O)cc1)C(=O)N[C@@H](CCCNC(=N)N)C(=O)N[C@@H](CCCCN)C(=O)N[C@@H](CCC(N)=O)C(=O)N[C@@H](C)C(=O)N[C@@H](C)C(=O)N[C@H](C(=O)N[C@@H](CCCCN)C(=O)N[C@@H](CCCCN)C(=O)N[C@@H](Cc1ccc(O)cc1)C(=O)N[C@@H](CC(C)C)C(=O)N[C@@H](C)C(=O)N[C@@H](C)C(=O)N[C@H](C(=O)N[C@@H](CC(C)C)C(N)=O)C(C)C)C(C)C)[C@@H](C)O [Peptide 25] (Ac-HA[Ala(1H-tetrazol-5-yl)]GIFT[Ala(1H-tetrazol-5-yl)]SYSRYRKQAAVKKYLAAVL-NH2) | 95.8% | 91.2% | 
CC[C@H](C)[C@H](NC(=O)CNC(=O)[C@H](Cc1nnn[nH]1)NC(=O)[C@H](CO)NC(=O)[C@H](Cc1c[nH]cn1)NC(C)=O)C(=O)N[C@@H](Cc1ccccc1)C(=O)N[C@H](C(=O)N[C@@H](Cc1nnn[nH]1)C(=O)N[C@@H](C)C(=O)N[C@@H](Cc1ccc(O)cc1)C(=O)N[C@@H](CO)C(=O)N[C@@H](CCCNC(=N)N)C(=O)N[C@@H](Cc1ccc(O)cc1)C(=O)N[C@@H](CCCNC(=N)N)C(=O)N[C@@H](CCCCN)C(=O)N[C@@H](CCC(N)=O)C(=O)N[C@@H](C)C(=O)N[C@@H](C)C(=O)N[C@H](C(=O)N[C@@H](CCCCN)C(=O)N[C@@H](CCCCN)C(=O)N[C@@H](Cc1ccc(O)cc1)C(=O)N[C@@H](CC(C)C)C(=O)N[C@@H](C)C(=O)N[C@@H](C)C(=O)N[C@H](C(=O)N[C@@H](CC(C)C)C(N)=O)C(C)C)C(C)C)[C@@H](C)O [Peptide 27] (Ac-HS[Ala(1H-tetrazol-5-yl)]GIFT[Ala(1H-tetrazol-5-yl)]AYSRYRKQAAVKKYLAAVL-NH2) | 96.4% | 93.5% | 
CC[C@H](C)[C@H](NC(=O)CNC(=O)[C@H](Cc1nnn[nH]1)NC(=O)[C@H](CO)NC(=O)[C@H](Cc1c[nH]cn1)NC(C)=O)C(=O)N[C@@H](Cc1ccccc1)C(=O)N[C@H](C(=O)N[C@@H](Cc1nnn[nH]1)C(=O)N[C@@H](CO)C(=O)N[C@@H](Cc1ccc(O)cc1)C(=O)N[C@@H](CO)C(=O)N[C@@H](CCCNC(=N)N)C(=O)N[C@@H](Cc1ccc(O)cc1)C(=O)N[C@@H](CCCNC(=N)N)C(=O)N[C@@H](CCCCN)C(=O)N[C@@H](C)C(=O)N[C@@H](C)C(=O)N[C@@H](C)C(=O)N[C@H](C(=O)N[C@@H](CCCCN)C(=O)N[C@@H](CCCCN)C(=O)N[C@@H](Cc1ccc(O)cc1)C(=O)N[C@@H](CC(C)C)C(=O)N[C@@H](C)C(=O)N[C@@H](C)C(=O)N[C@H](C(=O)N[C@@H](CC(C)C)C(N)=O)C(C)C)C(C)C)[C@@H](C)O [Peptide 28] (Ac-HS[Ala(1H-tetrazol-5-yl)]GIFT[Ala(1H-tetrazol-5-yl)]SYSRYRKAAAVKKYLAAVL-NH2) | 94.6% | 90.5% | 
CC[C@H](C)[C@H](NC(=O)CNC(=O)[C@H](Cc1nnn[nH]1)NC(=O)[C@H](CO)NC(=O)[C@H](Cc1c[nH]cn1)NS(C)(=O)=O)C(=O)N[C@@H](Cc1ccccc1)C(=O)N[C@H](C(=O)N[C@@H](Cc1nnn[nH]1)C(=O)N[C@@H](C)C(=O)N[C@@H](Cc1ccc(O)cc1)C(=O)N[C@@H](CO)C(=O)N[C@@H](CCCNC(=N)N)C(=O)N[C@@H](Cc1ccc(O)cc1)C(=O)N[C@@H](CCCNC(=N)N)C(=O)N[C@@H](CCCCN)C(=O)N[C@@H](CCC(N)=O)C(=O)N[C@@H](CC(C)C)C(=O)N[C@@H](C)C(=O)N[C@H](C(=O)N[C@@H](CCCCN)C(=O)N[C@@H](CCCCN)C(=O)N[C@@H](Cc1ccc(O)cc1)C(=O)N[C@@H](CC(C)C)C(=O)N[C@@H](C)C(=O)N[C@@H](C)C(=O)N[C@H](C(=O)N[C@@H](CC(C)C)C(N)=O)C(C)C)C(C)C)[C@@H](C)O [Peptide 29] (Ms-HS[Ala(1H-tetrazol-5-yl)]GIFT[Ala(1H-tetrazol-5-yl)]AYSRYRKQLAVKKYLAAVL-NH2) |  |  | 91.9%
